Reference: article PMC8297771 (PLoS Pathogens, 2021)
“Also recorded” adds a separate entry of the source.

Key:
[1] = molecular target: T1, IN-RNA binding (His6 tagged IN, HIV-1 TAR RNA) (Human immunodeficiency virus type 1 group M subtype B, UniProt P12497); experiment: Alpha Screen inhibition assay for IN binding to RNA; assay type: biochemical
T1 construct: incubated with 100 nM His6 tagged IN
Method: Primary antiviral activity of ALLINIs was observed during virion maturation, where they inhibit IN-RNA interactions, we examined the ability of STP0404 to inhibit recombinant IN binding to synthetic TAR RNA using Alpha screen based assay. Briefly, different concentrations of STP0404 were incubated with 100 nM His6 tagged IN in buffer containing 100 mM NaCl, 1 mM MgCl2, 1 mM DTT, 1mg/mL BSA, 25 mM Tris, pH 7.4 at 4°C for 2 hrs. This mixture was then added to the nickel acceptor beads while biotinylated-TAR RNA was added to the streptavidin donor beads. After 2-hrs incubation at 4°C, the RNA mixture was added to the IN-drug mixture and the reading was taken after 1 hr incubation at 4°C by PerkinElmer Life Sciences Enspire multimode plate reader. The IC50 values were calculated by OriginLab software.

[2] = system: HIV-1 GFP vector in pre-treated Jurkat cells; experiment: HIV-1 inhibition in infecting cells (early stage); assay type: cell-based; details: 60 nM in Jurkat cells; vector from untreated 293T cells
Method: To test for STP0404’s inhibitory effects during the late stage of HIV-1 life cycle such as the maturation step, we employed the “producing cells” setup. In T75 tissue culture flasks, 293T cells were pre-treated with and without STP0404 (0 and 60 nM) for 2 hrs prior to transfection with pD3-HIV (13 μg) and pVSV-g (6 μg), using 0.3 mg/ml polyethylenimine. After 24 hrs incubation at 37°C, the supernatant was removed and replaced with fresh media with and without STP0404 (0 and 60 nM). 48 hrs later, D3-HIV vector from each treatment group was concentrated from the collected supernatant via ultracentrifugation (22,000 rpm for 2 hrs). Following p24 quantification, using 96-well plates, similar amount of respective D3-HIV vector was used to transduce Jurkat cells in triplicates for 48 hrs. The cells were harvested and fixed with 3.7% formaldehyde before being analyzed for GFP expression using FACS (Miltenyi Biotec, VYB). Separately, the “infecting cells” setup was used to investigate the inhibitory effects of STP0404 against the early stages of HIV-1 life cycle such as the integration and transcription steps. […] All data were analyzed using GraphPad Prism (Version 9). Unpaired t tests were performed to determine the significance of the readings in respective experimental set up relative to the untreated controls. […]

[3] = system: SIVmac239; experiment: In vitro efficacy test against SIVmac239 in CEMx174 cells (p27); assay type: cell-based, SIV; details: p27 assay
Method: CEMx174 cells were infected with HIV-1 primary isolate 89.6 (From infectious clone p89.6, NIH AIDS Reagent Program) at approximately at 10% of cell population determined by FACS analyses. To determine antiviral activity during virus production, STP0404 was added at concentration in the range of 0.1 nM—10 μM during media exchange at 4 hrs post-infection. DMSO was used as a negative control. Cell-free supernatants were measured for p24 antigen production, 5 days post-infection. The anti-HIV-1 efficacy of the two enantiomers of STP0404 were also determined by using the same protocol. All assays were conducted in triplicates. […] For SIVmac239, CEMx174 cells were infected with viral supernatant containing SIVmac293 at 50,000 TCID50/mL (kind gift from Dr. G. Silvestri, Emory Yerkes National Primate Research Center) with 100 μL/10^6 cells at varying concentrations of STP0404, BI224436, and Raltegravir, and the same above protocol was followed except for that p27 capsid antigen content was measured daily for 5 days post infection.
Supplementary file ppat.1009671.s004.tiff: S1 Fig In vitro efficacy tests of STP0404, BI224436 and Raltegravir against SIVmac239 in CEMx174 cell culture. CEMx174 cells were infected with SIVmac239 with various concentrations of STP0404, BI224436, and Raltegravir, and the viral production was determined by p27 assay at 5 days post infection. […]

[4] = Microsomal stability determination; assay type: in vitro ADME, animal and human; details: human, liver microsomes; all tested species; read-out: microsomal stability T1/2
Method: A liver microsome (LM) stability assay was […] of incubation at 0, 10, 20, 30 and 60 min with a […] STP0404 initial concentration. All plates were shaken and centrifuged at 3200 x g for 20 mins. Then 100 μL of supernatant was taken from each well and diluted with 300 μL pure water before analyzed by LC/MS/MS. Animal and human liver microsomes were purchased from Wuxi AppTec, Xenotech or Corning and stored in a freezer (lower than -60°C) before use (Wuxi AppTec, China).

[5] = In vivo pharmacokinetics in SD rats; details: Sprague-Dawley, plasma, Rat
Method: Study design: […]). Group 1 was dosed with STP0404 at 1 mg/kg by single intravenous administration. […] The vehicle used for IV study was DMSO: PEG400: […] Blood samples were collected at 0.0833, 0.25, 0.5, 1, 2, 4, 8, 12 (only for PO groups) and 24 hrs post-dose for Groups 1 to 4. STP0404 concentrations in plasma samples were determined by LC-MS/MS. Preclinical Dog pharmacokinetics study (Study no. 400751-2015020201-DPK): A total of 6 male Beagle dogs were divided into two groups (3 animals/group). Following single STP0404 2 mg/kg oral and intravenous administration to Beagle Dogs, STP0404 concentration was determined in plasma, and pharmacokinetic parameters were calculated. […] The concentrations of STP0404 in plasma were determined by using a LC/MS/MS method.

Cc1nc2c(c(C)c(C)n2Cc2cnn(C)c2)c(-c2ccc(Cl)cc2)c1[C@H](OC(C)(C)C)C(=O)O [STP0404]
IC50 [1]: 20 ± 3 nM | transduction efficiency, infecting cells [2]: no reduction in transduction efficiency | inhibition of SIVmac239 [3]: did not inhibit; also recorded: failed to inhibit | half-life at 1 μL [4]: > 2.22 h | AUC ([5]; iv, 5 mg/kg (i.v)): 42.7 µM·h | half-life ([5]; iv, 5 mg/kg (i.v)): 3.83 h | AUC ([5]; po, 10 mg/kg (p.o)): 78 µM·h | Cmax ([5]; po, 10 mg/kg (p.o)): 21.4 µM | half-life ([5]; po, 10 mg/kg (p.o)): 4.56 h | bioavailability ([5]; po, 10 mg/kg (p.o), read-out: Ft (oral bioavailability)): 92.8%
